Data reported in the NIST ThermoML archive (doi:10.1021/je900690d).
Numbers after ± are expanded uncertainties.

Assay: mean ionic activity coefficient (dimensionless); mn = molality of the nth substance listed, in mol/kg
Conditions: 101 kPa, Liquid, Electrochemical Cell

**Q.** For [Cl-].[K+] [potassium chloride] + O, which “mean ionic activity coefficient” value (278.15 K, m1 = 0.0025) is on record?
**A.** 0.9474 ± 0.00095

**Q.** What about the “mean ionic activity coefficient” value (278.15 K, m1 = 0.0054) of the same compound?
**A.** 0.9254 ± 0.00093

**Q.** What about the “mean ionic activity coefficient” value (278.15 K, m1 = 0.0083) of the same compound?
**A.** 0.91 ± 0.00091

**Q.** And the “mean ionic activity coefficient” value (278.15 K, m1 = 0.014)?
**A.** 0.8876 ± 0.00089

**Q.** And the “mean ionic activity coefficient” value (278.15 K, m1 = 0.0224)?
**A.** 0.8637 ± 0.00086

**Q.** What about the “mean ionic activity coefficient” value (278.15 K, m1 = 0.034) of the same compound?
**A.** 0.8398 ± 0.00084

**Q.** And the “mean ionic activity coefficient” value (278.15 K, m1 = 0.051)?
**A.** 0.8137 ± 0.00081

**Q.** What about the “mean ionic activity coefficient” value (278.15 K, m1 = 0.0752) of the same compound?
**A.** 0.7863 ± 0.00079

**Q.** And the “mean ionic activity coefficient” value (278.15 K, m1 = 0.1147)?
**A.** 0.754 ± 0.00075

**Q.** And the “mean ionic activity coefficient” value (278.15 K, m1 = 0.1839)?
**A.** 0.7149 ± 0.00071

**Q.** What about the “mean ionic activity coefficient” value (278.15 K, m1 = 0.277) of the same compound?
**A.** 0.6787 ± 0.00068

**Q.** What about the “mean ionic activity coefficient” value (278.15 K, m1 = 0.3883) of the same compound?
**A.** 0.6474 ± 0.00065

**Q.** And the “mean ionic activity coefficient” value (278.15 K, m1 = 0.5559)?
**A.** 0.6129 ± 0.00061

**Q.** What about the “mean ionic activity coefficient” value (278.15 K, m1 = 0.7102) of the same compound?
**A.** 0.5888 ± 0.00059

**Q.** And the “mean ionic activity coefficient” value (278.15 K, m1 = 0.8997)?
**A.** 0.5653 ± 0.00057

**Q.** And the “mean ionic activity coefficient” value (278.15 K, m1 = 1.063)?
**A.** 0.5488 ± 0.00055

**Q.** What about the “mean ionic activity coefficient” value (278.15 K, m1 = 1.246) of the same compound?
**A.** 0.5333 ± 0.00053

**Q.** What about the “mean ionic activity coefficient” value (278.15 K, m1 = 1.405) of the same compound?
**A.** 0.522 ± 0.00052

**Q.** What about the “mean ionic activity coefficient” value (278.15 K, m1 = 1.547) of the same compound?
**A.** 0.5131 ± 0.00051

**Q.** What about the “mean ionic activity coefficient” value (288.15 K, m1 = 0.0026) of the same compound?
**A.** 0.946 ± 0.00095

**Q.** What about the “mean ionic activity coefficient” value (288.15 K, m1 = 0.005) of the same compound?
**A.** 0.9269 ± 0.00093

**Q.** What about the “mean ionic activity coefficient” value (288.15 K, m1 = 0.0077) of the same compound?
**A.** 0.9118 ± 0.00091

**Q.** What about the “mean ionic activity coefficient” value (288.15 K, m1 = 0.0129) of the same compound?
**A.** 0.8901 ± 0.00089

**Q.** What about the “mean ionic activity coefficient” value (288.15 K, m1 = 0.0183) of the same compound?
**A.** 0.8733 ± 0.00087

**Q.** And the “mean ionic activity coefficient” value (288.15 K, m1 = 0.026)?
**A.** 0.8543 ± 0.00085

**Q.** What about the “mean ionic activity coefficient” value (288.15 K, m1 = 0.0362) of the same compound?
**A.** 0.8346 ± 0.00083

**Q.** And the “mean ionic activity coefficient” value (288.15 K, m1 = 0.0512)?
**A.** 0.8123 ± 0.00081

**Q.** And the “mean ionic activity coefficient” value (288.15 K, m1 = 0.0744)?
**A.** 0.7864 ± 0.00079

**Q.** What about the “mean ionic activity coefficient” value (288.15 K, m1 = 0.1053) of the same compound?
**A.** 0.7607 ± 0.00076

**Q.** And the “mean ionic activity coefficient” value (288.15 K, m1 = 0.1534)?
**A.** 0.7316 ± 0.00073

**Q.** And the “mean ionic activity coefficient” value (288.15 K, m1 = 0.2433)?
**A.** 0.6945 ± 0.00069

**Q.** And the “mean ionic activity coefficient” value (288.15 K, m1 = 0.3142)?
**A.** 0.6736 ± 0.00067

**Q.** What about the “mean ionic activity coefficient” value (288.15 K, m1 = 0.4008) of the same compound?
**A.** 0.6536 ± 0.00065

**Q.** And the “mean ionic activity coefficient” value (288.15 K, m1 = 0.506)?
**A.** 0.6346 ± 0.00063

**Q.** And the “mean ionic activity coefficient” value (288.15 K, m1 = 0.6305)?
**A.** 0.6167 ± 0.00062

**Q.** What about the “mean ionic activity coefficient” value (288.15 K, m1 = 0.7893) of the same compound?
**A.** 0.5987 ± 0.0006

**Q.** And the “mean ionic activity coefficient” value (288.15 K, m1 = 0.9633)?
**A.** 0.5828 ± 0.00058

**Q.** What about the “mean ionic activity coefficient” value (288.15 K, m1 = 1.142) of the same compound?
**A.** 0.5695 ± 0.00057

**Q.** And the “mean ionic activity coefficient” value (288.15 K, m1 = 1.301)?
**A.** 0.5594 ± 0.00056

**Q.** What about the “mean ionic activity coefficient” value (288.15 K, m1 = 1.44) of the same compound?
**A.** 0.5515 ± 0.00055

**Q.** What about the “mean ionic activity coefficient” value (288.15 K, m1 = 1.567) of the same compound?
**A.** 0.545 ± 0.00055

**Q.** What about the “mean ionic activity coefficient” value (298.15 K, m1 = 0.0025) of the same compound?
**A.** 0.9465 ± 0.00095

**Q.** And the “mean ionic activity coefficient” value (298.15 K, m1 = 0.0049)?
**A.** 0.9271 ± 0.00093

**Q.** What about the “mean ionic activity coefficient” value (298.15 K, m1 = 0.0077) of the same compound?
**A.** 0.9114 ± 0.00091

**Q.** And the “mean ionic activity coefficient” value (298.15 K, m1 = 0.0132)?
**A.** 0.8888 ± 0.00089

**Q.** And the “mean ionic activity coefficient” value (298.15 K, m1 = 0.019)?
**A.** 0.8713 ± 0.00087

**Q.** And the “mean ionic activity coefficient” value (298.15 K, m1 = 0.0272)?
**A.** 0.8519 ± 0.00085

**Q.** And the “mean ionic activity coefficient” value (298.15 K, m1 = 0.0384)?
**A.** 0.8318 ± 0.00083

**Q.** And the “mean ionic activity coefficient” value (298.15 K, m1 = 0.0529)?
**A.** 0.8116 ± 0.00081

**Q.** What about the “mean ionic activity coefficient” value (298.15 K, m1 = 0.0731) of the same compound?
**A.** 0.7899 ± 0.00079

**Q.** And the “mean ionic activity coefficient” value (298.15 K, m1 = 0.1027)?
**A.** 0.766 ± 0.00077

**Q.** What about the “mean ionic activity coefficient” value (298.15 K, m1 = 0.1458) of the same compound?
**A.** 0.7404 ± 0.00074

**Q.** And the “mean ionic activity coefficient” value (298.15 K, m1 = 0.2002)?
**A.** 0.7169 ± 0.00072

**Q.** And the “mean ionic activity coefficient” value (298.15 K, m1 = 0.2643)?
**A.** 0.6961 ± 0.0007

**Q.** What about the “mean ionic activity coefficient” value (298.15 K, m1 = 0.3687) of the same compound?
**A.** 0.6714 ± 0.00067

**Q.** And the “mean ionic activity coefficient” value (298.15 K, m1 = 0.5383)?
**A.** 0.6442 ± 0.00064

**Q.** And the “mean ionic activity coefficient” value (298.15 K, m1 = 0.7187)?
**A.** 0.6245 ± 0.00062

**Q.** What about the “mean ionic activity coefficient” value (298.15 K, m1 = 0.8905) of the same compound?
**A.** 0.6109 ± 0.00061

**Q.** What about the “mean ionic activity coefficient” value (298.15 K, m1 = 1.09) of the same compound?
**A.** 0.599 ± 0.0006

**Q.** And the “mean ionic activity coefficient” value (298.15 K, m1 = 1.24)?
**A.** 0.5921 ± 0.00059

**Q.** What about the “mean ionic activity coefficient” value (298.15 K, m1 = 1.398) of the same compound?
**A.** 0.5862 ± 0.00059

**Q.** And the “mean ionic activity coefficient” value (308.15 K, m1 = 0.0025)?
**A.** 0.9451 ± 0.00095

**Q.** And the “mean ionic activity coefficient” value (308.15 K, m1 = 0.005)?
**A.** 0.9256 ± 0.00093

**Q.** And the “mean ionic activity coefficient” value (308.15 K, m1 = 0.0073)?
**A.** 0.9123 ± 0.00091

**Q.** What about the “mean ionic activity coefficient” value (308.15 K, m1 = 0.0099) of the same compound?
**A.** 0.9007 ± 0.0009

**Q.** And the “mean ionic activity coefficient” value (308.15 K, m1 = 0.0151)?
**A.** 0.8818 ± 0.00088

**Q.** And the “mean ionic activity coefficient” value (308.15 K, m1 = 0.0226)?
**A.** 0.8616 ± 0.00086

**Q.** And the “mean ionic activity coefficient” value (308.15 K, m1 = 0.0332)?
**A.** 0.8402 ± 0.00084

**Q.** And the “mean ionic activity coefficient” value (308.15 K, m1 = 0.0491)?
**A.** 0.8165 ± 0.00082

**Q.** And the “mean ionic activity coefficient” value (308.15 K, m1 = 0.075)?
**A.** 0.7889 ± 0.00079

**Q.** And the “mean ionic activity coefficient” value (308.15 K, m1 = 0.1006)?
**A.** 0.7687 ± 0.00077

**Q.** What about the “mean ionic activity coefficient” value (308.15 K, m1 = 0.1313) of the same compound?
**A.** 0.7499 ± 0.00075

**Q.** What about the “mean ionic activity coefficient” value (308.15 K, m1 = 0.1962) of the same compound?
**A.** 0.7209 ± 0.00072

**Q.** And the “mean ionic activity coefficient” value (308.15 K, m1 = 0.2752)?
**A.** 0.6962 ± 0.0007

**Q.** And the “mean ionic activity coefficient” value (308.15 K, m1 = 0.3636)?
**A.** 0.6759 ± 0.00068

**Q.** What about the “mean ionic activity coefficient” value (308.15 K, m1 = 0.4739) of the same compound?
**A.** 0.657 ± 0.00066

**Q.** And the “mean ionic activity coefficient” value (308.15 K, m1 = 0.6044)?
**A.** 0.6402 ± 0.00064

**Q.** And the “mean ionic activity coefficient” value (308.15 K, m1 = 0.7598)?
**A.** 0.6252 ± 0.00063

**Q.** What about the “mean ionic activity coefficient” value (308.15 K, m1 = 0.9162) of the same compound?
**A.** 0.6138 ± 0.00061

**Q.** And the “mean ionic activity coefficient” value (308.15 K, m1 = 1.087)?
**A.** 0.6044 ± 0.0006

**Q.** What about the “mean ionic activity coefficient” value (308.15 K, m1 = 1.251) of the same compound?
**A.** 0.5978 ± 0.0006

**Q.** And the “mean ionic activity coefficient” value (308.15 K, m1 = 1.397)?
**A.** 0.5934 ± 0.00059

**Q.** What about the “mean ionic activity coefficient” value (308.15 K, m1 = 1.526) of the same compound?
**A.** 0.5906 ± 0.00059
